50 molecules from article PMC5653977 (EMBO Molecular Medicine, 2017) can be followed below.

Where a name gives a salt, the structure may show the parent alone. Read-outs that look alike come from different tables or passages of the source.

This assay concerns NRG1-ERBB4 signaling. The assay can be described thus: Nrg1-ERBB4-PIK3R1 split TEV co-culture compound screen of the NIH Clinical Collection. Format: cell-based, human.
Setting [1] is: compound screen of the NIH Clinical Collection, sheet raw data NCC-003, compounds ranked by Z-score.
[2] abbreviates: compounds at 10 μM, 24 h, PC12 split TEV assay cells co-cultured with Nrg1-expressing PC12 cells, analysed with cellHTS2.
The mark [3] stands for this setting: NIH Clinical Collection NCC-003 raw data, compounds ranked by Z-score, 'flagged' given instead of a Z-score.

Under setting [1], `CN1CCCCC1CCN1c2ccccc2Sc2ccc([S+](C)[O-])cc21` (stereo not drawn) [Mesoridazine] had a Z-SCORE of -0.53.
On the same count and under the same terms, for `COc1ccc2c3c1O[C@H]1C[C@@H](O)C=C[C@@]31CCN(C)C2` [Galanthamine] the value was 1.13; for `CCCCc1nc(Cl)c(CO)n1Cc1ccc(-c2ccccc2-c2nn[nH]n2)cc1` [LOSARTAN Potassium], -0.12.
For `NS(=O)(=O)c1cc2c(cc1Cl)NCNS2(=O)=O` [Hydrochlorothiazide, reference compound], the Z-SCORE under setting [2] is reported as -0.03.
Take `Cc1nc2ccc(CN(C)c3ccc(C(=O)N[C@@H](CCC(=O)O)C(=O)O)s3)cc2c(=O)[nH]1` [RALTITREXED]: the Z-SCORE under setting [1] is given as -0.52.
Still for that read-out and setting: for `CN(CCCN1c2ccccc2CCc2ccccc21)CC(=O)c1ccc(Cl)cc1` [LOFEPRAMINE] the value was -0.53; for `C[C@]12Cc3c[nH]nc3C[C@@H]1CC[C@@H]1[C@@H]2CC[C@@]2(C)[C@H]1CC[C@]2(C)O` [Stanozolol], 0.07; for `C=CC1=C(C(=O)O)N2C(=O)[C@@H](NC(=O)/C(=N\O)c3csc(N)n3)[C@H]2SC1`, 0.68.
As to `CCCNC(C)C(=O)Nc1ccccc1C` (stereo not drawn) [PRILOCAINE HYDROCHLORIDE, reference compound], the Z-SCORE under setting [2] is recorded as 0.68.
For the molecule `Cc1cc2c(s1)Nc1ccccc1N=C2N1CCN(C)CC1` [OLANZAPINE], under setting [1], the Z-SCORE was -0.89.
Consider `CC(=O)OCC(=O)[C@@]1(O)CC[C@H]2[C@@H]3CCC4=CC(=O)CC[C@]4(C)[C@H]3C(=O)C[C@@]21C` [CORTISONE ACETATE, reference compound], for which the Z-SCORE under setting [2] is recorded as 0.08.
Take `OCCN1C[C@H](O)[C@@H](O)[C@H](O)[C@H]1CO` [MIGLITOL]: the Z-SCORE under setting [1] is -0.33.
Molecule `CCCSc1ccc2nc(NC(=O)OC)[nH]c2c1` [Albendazole, reference compound] yielded a Z-SCORE of -5.48.
As to `NNCCc1ccccc1` [Phenelzine, reference compound], under setting [2], the Z-SCORE is given as -0.21.
For `CC(C)CC(N(C)C)C1(c2ccc(Cl)cc2)CCC1` (stereo not drawn) [Sibutramine], the Z-SCORE under setting [1] was -0.34.
Same read-out and setting: as for `C[C@]12CCC(=O)C[C@@H]1CC[C@@H]1[C@@H]2CC[C@@]2(C)[C@H]1CC[C@]2(C)O` [Mestanolone], the figure is 1.19.
As to `O=c1c(-c2ccccc2)c1-c1ccccc1` [diphenylcyclopropenone], the Z-SCORE entry under setting [3] is listed as “flagged”.
Regarding `CCN1CCN(C(=O)N[C@@H](C(=O)N[C@@H]2C(=O)N3[C@@H]2SC(C)(C)[C@@H]3C(=O)O)c2ccccc2)C(=O)C1=O` [PIPERACILLIN SODIUM SALT, reference compound], the Z-SCORE under setting [2] came to 0.05.
For the molecule `c1ccc(Cn2ccnc2)cc1` [1-BENZYLIMIDAZOLE], the Z-SCORE under setting [1] is listed as -0.1.
On to `CC(C)[N+](C)(CCOC(=O)C1c2ccccc2Oc2ccccc21)C(C)C` [Pro-Banthine, reference compound], for which the Z-SCORE under setting [2] was -0.77.
Still for that read-out and setting: as for `CCCN(CCC)S(=O)(=O)c1ccc(C(=O)O)cc1` [Probenecid, reference compound], the figure is 1.6.
On to `COc1nc(C)nc(Cl)c1NC1=NCCN1.Cl` [MOXONIDINE HCl], for which, under setting [1], the Z-SCORE was found to be 0.68.
As to `CC(C)C[C@H](NC(=O)[C@@H](COC(C)(C)C)NC(=O)[C@H](Cc1ccc(O)cc1)NC(=O)[C@H](CO)NC(=O)[C@H](Cc1c[nH]c2ccccc12)NC(=O)[C@H](Cc1cnc[nH]1)NC(=O)[C@@H]1CCC(=O)N1)C(=O)N[C@@H](CCCNC(=N)N)C(=O)N1CCC[C@H]1C(=O)NNC(N)=O` [GOSERELIN ACETATE], the Z-SCORE under setting [3] is listed as -1.23.
For the molecule `NS(=O)(=O)Cc1noc2ccccc12` [Zonisamide, reference compound], the Z-SCORE under setting [2] was -0.47.
Turning to `C[C@@H]1C[C@H]2[C@@H]3CCC4=CC(=O)C=C[C@]4(C)[C@@]3(F)[C@@H](O)C[C@]2(C)[C@H]1C(=O)CO` [DESOXIMETASONE], the Z-SCORE under setting [1] is -0.5.
In the case of `COc1cc2nc(N3CCN(C(=O)C4CCCO4)CC3)nc(N)c2cc1OC` (stereo not drawn) [Terazosin, reference compound], the Z-SCORE is -0.8 under setting [1] and -1.96 under setting [2].
For `Nc1ccc2cn[nH]c2c1` [6-AMINOINDAZOLE], the Z-SCORE under setting [1] came to 0.45.
`COc1ccc(/C=C/C(=O)Nc2ccccc2C(=O)O)cc1OC` had a Z-SCORE under setting [3] of -1.17.
`CNC(=O)Oc1ccc2c(c1)[C@]1(C)CCN(C)[C@@H]1N2C` [Physostigmine] returned a Z-SCORE under setting [1] of 0.16.
Molecule `CN(C)CCCN1c2ccccc2Sc2ccc(Cl)cc21` [Sonazine, reference compound] had a Z-SCORE under setting [2] of 0.6.
Same read-out and setting: for `C[C@H](CS)C(=O)N1CCC[C@H]1C(=O)O` [CAPTOPRIL, reference compound] the value was -0.02.
Consider `Cc1cn([C@H]2C[C@H](N=[N+]=[N-])[C@@H](CO)O2)c(=O)[nH]c1=O` [zidovudine, reference compound], for which the Z-SCORE under setting [2] came to 0.17.
`C[N+]1(C)CCN(c2ccccc2)CC1.[I-]` [1,1-DIMETHYL-4-PHENYLPIPERAZINIUM IODIDE] displayed a Z-SCORE under setting [1] of 2.45.
On the same count and under the same terms, as for `O=C(NCCN1CCOCC1)c1ccc(Cl)cc1`, the figure is -0.92.
`Cc1cccc(Nc2ccccc2C(=O)O)c1C` [Mefenamic Acid, reference compound] had a Z-SCORE under setting [2] of 0.34.
Molecule `NCCc1ccc(O)c(O)c1` [Intropin, reference compound] showed a Z-SCORE under setting [2] of 0.13.
`CCCCCCCCCCC[C@@H](C[C@@H]1OC(=O)[C@H]1CCCCCC)OC(=O)[C@H](CC(C)C)NC=O` [ORLISTAT]: under setting [1], the Z-SCORE turned out to be 0.19.
Consider `Nc1cc(N2CCCCC2)nc(N)[n+]1[O-]` [Minoxidil, reference compound], for which the Z-SCORE under setting [2] is recorded as 0.25.
`CC(Cc1ccccc1)(NC(=O)CN)c1ccccc1` (racemic) showed a Z-SCORE under setting [1] of 0.97.
In the case of `Cc1nnc(SCC2=C(C(=O)O)N3C(=O)[C@@H](NC(=O)Cn4cnnn4)[C@H]3SC2)s1` [CEFAZOLIN SODIUM SALT, reference compound], under setting [2], the Z-SCORE was -0.74.
In the case of `N[C@@H](C(=O)N[C@@H]1C(=O)N2C(C(=O)O)=C(Cl)CS[C@H]12)c1ccccc1` [CEFACLOR], the Z-SCORE under setting [1] is given as -0.62.
Same read-out and setting: as for `CCN1CCCC1CNC(=O)c1cc(S(=O)(=O)CC)c(N)cc1OC` (stereo not drawn) [Amisulpride], the figure is 0.41.
Take `CCC1(c2ccccc2)C(=O)NCNC1=O` [Primidone, reference compound]: the Z-SCORE under setting [2] was 1.6.
Turning to `Cc1ccc(-c2nc3ccc(C)cn3c2CC(=O)N(C)C)cc1` [ZOLPIDEM TARTRATE], under setting [1], the Z-SCORE is reported as -0.69.
On the same count and under the same terms, as for `CCC(=O)[N-]S(=O)(=O)c1ccc(-c2c(-c3ccccc3)noc2C)cc1.[Na+]` [PARECOXIB Na], the figure is -0.3.
The molecule `Cc1c(O)c(=O)ccn1C` returned a Z-SCORE under setting [1] of 0.19.
As for `NNC(=O)c1ccncc1` [Isoniazid, reference compound], the Z-SCORE under setting [2] is listed as -0.38.
Consider `O=C1CN2Cc3c(ccc(Cl)c3Cl)N=C2N1` [ANAGRELIDE HCl], for which the Z-SCORE under setting [1] was -0.48.
Still for that read-out and setting: for `COc1cc2c(cc1OC)[C@@]13CCN4CC5=CCO[C@H]6CC(=O)N2[C@H]1[C@H]6[C@H]5C[C@H]43` [Brucine] the value was 0.21.
On to `CC1(C)O[C@@H]2C[C@H]3[C@@H]4C[C@H](F)C5=CC(=O)C=C[C@]5(C)[C@H]4[C@@H](O)C[C@]3(C)[C@]2(C(=O)CO)O1` [FluniSOLIDe, reference compound], for which the Z-SCORE under setting [2] was 2.03.
